The term Emax denotes the greatest response seen or fitted, relative to the assay's reference. Usually Ki stands for a measure of affinity in units of concentration, obtained from inhibition or displacement. By pKb is commonly meant −log10 of the Kb, conventionally taken in molar units. For orientation: pKi means the negative decadic logarithm of the Ki, by convention in mol/L. As a reminder, the EC50 is the concentration that produces a half-maximal response.

For assay [1], the system named is Mus musculus. Description: Reduction in morphine dependence expression in ip dosed mouse assessed as dosed required for decrease in expression of naloxone-precipitated withdrawal syndrome. It counts as functional.
Assay [2] has as its system Mus musculus. Description: Antidepressant-like activity in mouse assessed as reduction in immobility time at 0.025 mg/kg, ip by forced swimming test. It counts as functional, organism-based. Set-up: dose 0.025 mg/kg.
Assay [3] addresses T1, Alpha-2C adrenergic receptor (Homo sapiens) (UniProt P18825).
T1 sequence (whole entry): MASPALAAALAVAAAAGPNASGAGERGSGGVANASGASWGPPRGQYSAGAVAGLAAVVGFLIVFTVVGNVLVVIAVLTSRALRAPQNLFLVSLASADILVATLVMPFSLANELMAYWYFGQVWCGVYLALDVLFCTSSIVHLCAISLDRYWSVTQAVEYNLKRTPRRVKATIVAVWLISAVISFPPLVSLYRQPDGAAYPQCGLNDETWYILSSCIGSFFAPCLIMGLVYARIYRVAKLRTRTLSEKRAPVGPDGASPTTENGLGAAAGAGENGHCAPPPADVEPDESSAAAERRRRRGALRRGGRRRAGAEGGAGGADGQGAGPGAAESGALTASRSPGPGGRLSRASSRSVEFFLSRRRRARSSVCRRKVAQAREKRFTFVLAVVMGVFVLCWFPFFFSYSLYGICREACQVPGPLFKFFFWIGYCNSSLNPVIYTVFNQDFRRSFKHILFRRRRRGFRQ
The experiment in a line: Agonist activity at human alpha2C AR assessed as intrinsic activity.

The target in assay [4] is T2, Alpha-2B adrenergic receptor (Homo sapiens) (UniProt P18089).
T2 sequence (whole entry): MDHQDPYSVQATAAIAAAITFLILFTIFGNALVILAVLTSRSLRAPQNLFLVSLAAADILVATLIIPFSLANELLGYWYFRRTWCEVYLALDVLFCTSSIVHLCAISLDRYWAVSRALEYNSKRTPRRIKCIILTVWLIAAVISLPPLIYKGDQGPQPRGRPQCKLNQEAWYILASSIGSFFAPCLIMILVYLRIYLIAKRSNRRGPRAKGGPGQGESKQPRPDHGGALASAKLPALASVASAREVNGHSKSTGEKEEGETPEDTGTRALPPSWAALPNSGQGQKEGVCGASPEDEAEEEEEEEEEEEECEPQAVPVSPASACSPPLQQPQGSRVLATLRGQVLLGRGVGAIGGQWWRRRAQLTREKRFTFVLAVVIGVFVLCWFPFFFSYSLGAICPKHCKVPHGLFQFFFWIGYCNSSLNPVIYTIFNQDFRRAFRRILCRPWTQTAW
Description: Agonist activity at human alpha2B AR assessed as intrinsic activity.

The target in assay [5] is T3, 5-hydroxytryptamine receptor 1A (Homo sapiens) (UniProt P08908).
T3 sequence (whole entry): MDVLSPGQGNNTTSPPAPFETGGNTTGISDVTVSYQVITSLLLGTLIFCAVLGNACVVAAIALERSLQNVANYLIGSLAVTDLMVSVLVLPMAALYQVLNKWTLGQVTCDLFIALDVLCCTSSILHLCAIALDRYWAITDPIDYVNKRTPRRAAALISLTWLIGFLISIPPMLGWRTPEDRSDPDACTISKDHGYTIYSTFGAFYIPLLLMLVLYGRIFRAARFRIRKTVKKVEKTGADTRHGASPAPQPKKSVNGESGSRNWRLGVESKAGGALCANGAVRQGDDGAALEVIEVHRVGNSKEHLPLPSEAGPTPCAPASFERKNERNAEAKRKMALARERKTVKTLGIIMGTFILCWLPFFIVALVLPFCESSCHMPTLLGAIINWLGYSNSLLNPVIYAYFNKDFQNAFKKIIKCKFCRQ
Description: Agonist activity at human 5HT1A receptor relative to control.

Assay [6] addresses T4, 5-hydroxytryptamine receptor 1A (Homo sapiens, UniProt P08908).
T4 sequence (P08908 whole entry): T3 sequence (whole entry)
Description: Binding affinity at human 5HT1A receptor.

For assay [7], the target named is T3, 5-hydroxytryptamine receptor 1A (Homo sapiens). The experiment in a line: Agonist activity at human 5HT1A receptor.
Assay [8] concerns the target T5, Alpha-2A adrenergic receptor (Homo sapiens) (UniProt P08913).
T5 sequence (whole entry): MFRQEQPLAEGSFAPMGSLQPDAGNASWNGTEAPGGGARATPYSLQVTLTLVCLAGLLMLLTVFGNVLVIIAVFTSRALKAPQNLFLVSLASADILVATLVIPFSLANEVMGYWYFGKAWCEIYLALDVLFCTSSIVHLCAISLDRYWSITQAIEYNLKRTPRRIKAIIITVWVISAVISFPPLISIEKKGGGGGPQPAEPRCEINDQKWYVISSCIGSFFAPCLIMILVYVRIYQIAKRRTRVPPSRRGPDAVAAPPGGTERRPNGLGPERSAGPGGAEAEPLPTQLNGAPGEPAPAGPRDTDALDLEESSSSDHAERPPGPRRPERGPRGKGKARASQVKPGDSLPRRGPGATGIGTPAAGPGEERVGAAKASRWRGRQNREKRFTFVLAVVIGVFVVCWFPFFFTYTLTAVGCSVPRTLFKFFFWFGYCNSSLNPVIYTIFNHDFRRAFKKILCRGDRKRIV
The experiment in a line: Antagonist activity at human alpha2A AR.

The subject of assay [9] is Mus musculus. The experiment in a line: Antidepressant-like activity in mouse assessed as reduction in immobility time at 20 mg/kg, ip by forced swimming test. On the set-up: dose 20 mg/kg. It counts as functional, organism-based.
Assay [10] concerns the target T3, 5-hydroxytryptamine receptor 1A (Homo sapiens). The experiment in a line: Agonist activity at human 5HT1A receptor assessed as intrinsic activity.
The test system of assay [11] is Mus musculus. The experiment in a line: Antidepressant-like activity in mouse assessed as reduction in immobility time at 10 mg/kg, ip by forced swimming test. The format is functional, organism-based. Set-up: dose 10 mg/kg.
Assay [12] can be described thus: Binding affinity to I2 imidazoline binding site in rat brain membrane. It counts as cell membranes.
For assay [13], the target named is T6, Alpha-2C adrenergic receptor (Homo sapiens, UniProt P18825).
T6 sequence (P18825 whole entry): T1 sequence (whole entry)
Description: Binding affinity at human alpha2C AR.

The target in assay [14] is T7, Alpha-2B adrenergic receptor (Homo sapiens, UniProt P18089).
T7 sequence (P18089 whole entry): T2 sequence (whole entry)
The experiment in a line: Binding affinity at human alpha2B AR.

The target of assay [15] is T8, Alpha-2A adrenergic receptor (Homo sapiens, UniProt P08913).
T8 sequence (P08913 whole entry): T5 sequence (whole entry)
The experiment in a line: Binding affinity at human alpha2A AR.

The target of assay [16] is T6, Alpha-2C adrenergic receptor. The experiment in a line: Agonist activity at human alpha2C AR.
For assay [17], the target named is T7, Alpha-2B adrenergic receptor. Description: Agonist activity at human alpha2B AR.
In assay [18] the test system is Mus musculus. The experiment in a line: Antidepressant-like activity in ip dosed mouse assessed as dosed required for reduction in immobility time by forced swimming test. The format is functional.
Assay [19] relates to Mus musculus. Description: Reduction in morphine dependence expression in mouse assessed as decrease in expression of naloxone-precipitated withdrawal syndrome measuring jumping at 5 mg/kg, ip. It counts as functional. On the set-up: scale not given: the % may be the effect or the level left. To be noted: route intraperitoneal.
The subject of assay [20] is Mus musculus. Description: Reduction in morphine dependence expression in mouse assessed as decrease in expression of naloxone-precipitated withdrawal syndrome measuring somatic signs at 5 mg/kg, ip. As to conditions: route intraperitoneal. The format is functional. On the set-up: scale not given: the % may be the effect or the level left.
Assay [21] has as its system Mus musculus. The experiment in a line: Antidepressant-like activity in mouse assessed as reduction in immobility time at 5 mg/kg, ip by forced swimming test in presence of idazoxan. The format is functional, organism-based. Set-up: dose 5 mg/kg.
Assay [22] has as its system Mus musculus. Description: Antidepressant-like activity in mouse assessed as reduction in immobility time at 5 mg/kg, ip by forced swimming test in presence of WAY 100635. The format is functional, organism-based. On the set-up: dose 5 mg/kg.
Assay [23] deals with Mus musculus. The experiment in a line: Antidepressant-like activity in mouse assessed as reduction in immobility time at 1 to 20 mg/kg, ip by forced swimming test. The format is functional, organism-based.
Assay [24] relates to Mus musculus. The experiment in a line: Antidepressant-like activity in mouse assessed as reduction in immobility time at 5 mg/kg, ip by forced swimming test. The format is functional. On the set-up: scale not given: the % may be the effect or the level left. To be noted: route intraperitoneal.
In assay [25] the test system is Mus musculus. The experiment in a line: Antidepressant-like activity in mouse assessed as reduction in immobility time at 0.05 mg/kg, ip by forced swimming test. On the set-up: dose 0.05 mg/kg. The format is functional, organism-based.
Assay [26] deals with T2, Alpha-2B adrenergic receptor (Homo sapiens).

Calls of active or inactive are those of the source. The calls are words filed in the database; no cut-off is given here.

Take `c1ccc2oc(-c3ncc[nH]3)cc2c1`: the Activity in the assay with Mus musculus [1] was 20 mg/kg.
`C[C@H](Oc1ccccc1C1CC1)C1=NCCN1`: the result in the assay on Mus musculus [2] was Active. Also, the values for the Intrinsic activity in [3] and in assay [4] were 0.9 and 0.65, respectively. For the same molecule, the Emax in assay [5] stood at 102%. In assay [6], this molecule gave a Ki of 6.03 nM. Moreover, the pD2 in assay [7] was 7.86. Besides, in assay [8], the pKb came to 7.7.
Turning to `CNCCC(Oc1ccc(C(F)(F)F)cc1)c1ccccc1` (stereo unspecified), in the assay on Mus musculus [9], the result was Active.
In the case of `CCCc1ccccc1OCC1=NCCN1`, the Intrinsic activity in assay [10] came out at 0.9. Moreover, in the assay on Mus musculus [11], the result was Active. Moreover, in assay [12], the pKi amounted to 8.25. For the same molecule, the Ki is 79.4 nM in assay [6], 490 nM in assay [13], 550 nM in assay [14] and 49 nM in assay [15]. In addition, the EC50 is 155 nM in assay [16] and 2510 nM in assay [17]. The molecule also gave a pKb in assay [8] of 6.28.
For the molecule `c1ccc2oc(C3=NCCN3)cc2c1`, the Activity with Mus musculus [1] worked out at 19 mg/kg; in the assay on Mus musculus [18] it was 10 mg/kg. In addition, in [12], the pKi was found to be 8.89. For the same molecule, the Ki in [13], in [14] and in [15] was 26900 nM in each case.
As for `C=CCc1ccccc1OCC1=NCCN1`, in assay [10], the Intrinsic activity was determined as 0.73. Also, the Activity with Mus musculus [19] is listed as more than 50%; with Mus musculus [20] it was more than 50%; in the assay with Mus musculus [24] it was 50%. The outcome with Mus musculus [21] and in the assay on Mus musculus [25] was inactive. The outcome in the assay on Mus musculus [22] and in the assay on Mus musculus [23] was Active. Moreover, in assay [12], the pKi stood at 8.88. Further, the Ki in [6] is 70.8 nM; in assay [13], 70.8 nM; in assay [14], 708 nM; in assay [15], 126 nM. In addition, the values for the EC50 in [16] and in assay [17] were 61.7 nM and 977 nM, respectively. This molecule registered a pKb in assay [8] of 6.5.
With `C[C@@H](Oc1ccccc1C1CC1)C1=NCCN1`, in the assay with Mus musculus [2], the outcome was inactive. Also, the Intrinsic activity in [3] amounted to 0.5. In assay [7], this molecule had a pD2 of less than 5. Moreover, the pKb in [8] was 6.9. In assay [26], the pEC50 result is “inactive”.
